From patent US20050197350A1, “Novel quinoline, tetrahydroquinazoline, and pyrimidine derivatives and methods of treatment related to the use thereof” (TAISHO PHARMACEUTICAL CO., LTD., priority 2003, published 2005) come the findings set out here.

The test concerns MCH receptors. As to the kind of experiment: MCH receptor activity class (method not given).
[1] abbreviates: class by percent of control at 10^-7 M or IC50.
Setting [2] is: class 1-3 by percent of control at 10^-7 M or IC50.
The mark [3] stands for this setting: activity class 1-3: percent of control at 10^-7 M or IC50.
Where [4] appears, read: MCH receptor, class by percent of control at 10^-7 M or IC50.
Where [5] appears, read: MCH receptor activity class 1-3 (percent of control at 10^-7 M or IC50).
The mark [6] stands for this setting: activity class per percent of control at 10^-7 M or IC50.
Setting [7] is: class by percent of control at 10^−7 M or IC50.

Structures are written as SMILES. Like-named read-outs stand apart in the source and are kept apart here.

On to `CC(C)c1ccccc1NC(=S)N[C@H]1CC[C@@H](Nc2cc(N(C)C)c3ccccc3n2)CC1` [compound 2281], for which the class under setting [1] is 3 (Class 3 The value of percent of control at 10^−7 M was more than 60% or the value of IC50 was more than 200 nM.).

Consider `COc1cc(OC)cc(C(=O)NC[C@H]2CC[C@@H](Nc3nccc(N(C)C)n3)CC2)c1` [compound 421], for which the class under setting [2] is listed as 3 (Class 3 The value of percent of control at 10^−7 M was more than 60% or the value of IC50 was more than 200 nM.).

Take `COc1ccc(CC(=O)N[C@H]2CC[C@@H](Nc3nc4c(c(N(C)C)n3)CCCC4)CC2)cc1` [compound 505]: under setting [2], the class is 2 (Class 2: The value of percent of control at 10^−7 M was from 40% to 60% or the value of IC′50 was from 50 nM to 200 nM.).

Take `CN(C)c1nc(N[C@H]2CC[C@@H](NC(=O)Nc3c(F)cc(Br)cc3Br)CC2)nc2c1CCCC2` [compound 1671, N-(2,4-dibromo-6-fluorophenyl)-N′-(cis-4-{[4-(dimethylamino)-5,6,7,8-tetrahydroquinazolin-2-yl]amino}cyclohexyl)urea]: the class under setting [3] is reported as 2 (Class 2: The value of percent of control at 10^−7 M was from 40% to 60% or the value of IC′50 was from 50 nM to 200 nM.).

`CN(C)c1cc(N[C@H]2CC[C@@H](NC(=O)c3ccccc3C(=O)c3cccc4ccccc34)CC2)nc2ccccc12` [compound 749]: the class under setting [1] is reported as 3 (Class 3 The value of percent of control at 10^−7 M was more than 60% or the value of IC50 was more than 200 nM.).

In the case of `CN(C)c1ccnc(N[C@H]2CC[C@@H](NC(=O)/C=C/c3cccc([N+](=O)[O-])c3)CC2)n1` [compound 822], the class under setting [1] is 3 (Class 3 The value of percent of control at 10^−7 M was more than 60% or the value of IC50 was more than 200 nM.).

As for `CN(C)c1cc(N[C@H]2CC[C@@H](CNC(=O)c3cc(Cl)cc(Cl)c3)CC2)nc2ccccc12` [compound 157], the class under setting [4] is on record as 3 (Class 3 The value of percent of control at 10^−7 M was more than 60% or the value of IC50 was more than 200 nM.).

Consider `CN(C)c1cc(N[C@H]2CC[C@@H](CNCc3ccc(OCc4ccc(Br)cc4)cc3)CC2)nc2ccccc12` [compound 1203], for which, under setting [1], the class is 3 (Class 3 The value of percent of control at 10^−7 M was more than 60% or the value of IC50 was more than 200 nM.).

For `Cc1ccc(NC(=O)N[C@H]2CC[C@@H](Nc3nc4c(c(N(C)C)n3)CCCC4)CC2)cc1` [compound 1796], under setting [1], the class is given as 2 (Class 2: The value of percent of control at 10^−7 M was from 40% to 60% or the value of IC′50 was from 50 nM to 200 nM.).

Consider `COc1cc2ccccc2cc1CN[C@H]1CC[C@@H](Nc2cc(N(C)C)c3ccccc3n2)CC1` [compound 1454], for which the class under setting [1] is 3 (Class 3 The value of percent of control at 10^−7 M was more than 60% or the value of IC50 was more than 200 nM.).

Take `Cc1cc(NC(=S)N[C@H]2CC[C@@H](Nc3nc4c(c(N(C)C)n3)CCCC4)CC2)ccc1Br` [compound 2047]: the class under setting [4] is given as 3 (Class 3 The value of percent of control at 10^−7 M was more than 60% or the value of IC50 was more than 200 nM.).

In the case of `CN(C)c1ccnc(N[C@H]2CC[C@@H](NC(=S)Nc3ccc(Br)cc3OC(F)(F)F)CC2)n1` [compound 2352], under setting [5], the class is 3 (Class 3 The value of percent of control at 10^−7 M was more than 60% or the value of IC50 was more than 200 nM.).

Take `CC(NC(=S)N[C@H]1CC[C@@H](Nc2nc3c(c(N(C)C)n2)CCCC3)CC1)c1ccc(F)cc1` (relative stereo) [compound 2014]: the class under setting [4] is reported as 3 (Class 3 The value of percent of control at 10^−7 M was more than 60% or the value of IC50 was more than 200 nM.).

Take `COc1ccc(CC(=O)NC[C@H]2CC[C@@H](Nc3nccc(N(C)C)n3)CC2)cc1` [compound 414, N-[(cis-4-{[4-(dimethylamino)pyrimidin-2-yl]amino}cyclohexyl)methyl]-2-(4-methoxyphenyl)acetamide]: the class under setting [2] is reported as 2 (Class 2: The value of percent of control at 10^−7 M was from 40% to 60% or the value of IC′50 was from 50 nM to 200 nM.).

Regarding `C[C@@H](NC(=S)N[C@H]1CC[C@@H](Nc2cc(N(C)C)c3ccccc3n2)CC1)c1ccccc1` [compound 2298], the class under setting [5] is reported as 3 (Class 3 The value of percent of control at 10^−7 M was more than 60% or the value of IC50 was more than 200 nM.).

Regarding `CC(C)Oc1ccc(CNC[C@H]2CC[C@@H](Nc3nccc(N(C)C)n3)CC2)cc1` [compound 1277], the class under setting [1] is given as 2 (Class 2: The value of percent of control at 10^−7 M was from 40% to 60% or the value of IC′50 was from 50 nM to 200 nM.).

Turning to `COc1cc(OC)c(OC)cc1CNC[C@H]1CC[C@@H](Nc2cc(N(C)C)c3ccccc3n2)CC1` [compound 1175], the class under setting [1] is given as 2 (Class 2: The value of percent of control at 10^−7 M was from 40% to 60% or the value of IC′50 was from 50 nM to 200 nM.).

For the compound `CN(C)c1nc(N[C@H]2CC[C@@H](NC(=S)NCc3ccc(Cl)c(Cl)c3)CC2)nc2c1CCCC2` [compound 2005], the class under setting [4] is reported as 3 (Class 3 The value of percent of control at 10^−7 M was more than 60% or the value of IC50 was more than 200 nM.).

In the case of `COc1cc(Br)c(CNC[C@H]2CC[C@@H](Nc3cc(N(C)C)c4ccccc4n3)CC2)cc1OC` [compound 1191], the class under setting [1] is 3 (Class 3 The value of percent of control at 10^−7 M was more than 60% or the value of IC50 was more than 200 nM.).

For the compound `Cc1ccc(C(=O)N[C@H]2CC[C@@H](Nc3nccc(N(C)C)n3)CC2)cc1F` [compound 292], the class under setting [1] is recorded as 3 (Class 3 The value of percent of control at 10^−7 M was more than 60% or the value of IC50 was more than 200 nM.).

For `CCSC(C(=O)N[C@H]1CC[C@@H](Nc2nc3c(c(N(C)C)n2)CCCC3)CC1)(c1ccccc1)c1ccccc1` [compound 1010], under setting [6], the class was 2 (Class 2: The value of percent of control at 10^−7 M was from 40% to 60% or the value of IC′50 was from 50 nM to 200 nM.).

As to `COc1ccc(OC)c(CNC[C@H]2CC[C@@H](Nc3nc4c(c(N(C)C)n3)CCCC4)CC2)c1` [compound 1367], the class under setting [1] is given as 2 (Class 2: The value of percent of control at 10^−7 M was from 40% to 60% or the value of IC′50 was from 50 nM to 200 nM.).

`CN(C)c1nc(N[C@H]2CC[C@@H](NC(=O)CCc3ccccc3O)CC2)nc2c1CCCC2` [compound 955]: under setting [1], the class was 2 (Class 2: The value of percent of control at 10^−7 M was from 40% to 60% or the value of IC′50 was from 50 nM to 200 nM.).

Consider `COc1ccccc1NC(=O)N[C@H]1CC[C@@H](Nc2nc3c(c(N(C)C)n2)CCCC3)CC1` [compound 1833], for which the class under setting [1] is on record as 3 (Class 3 The value of percent of control at 10^−7 M was more than 60% or the value of IC50 was more than 200 nM.).

In the case of `CN(C)c1nc(N[C@H]2CC[C@@H](NC(=S)Nc3c(Cl)c(Cl)cc(Cl)c3Cl)CC2)nc2c1CCCC2` [compound 2031, N-(cis-4-{[4-(dimethylamino)-5,6,7,8-tetrahydroquinazolin-2-yl]amino}cyelohexyl)-N′-(2,3,5,6-tetrachlorophenyl)thiourea], the class under setting [4] is on record as 3 (Class 3 The value of percent of control at 10^−7 M was more than 60% or the value of IC50 was more than 200 nM.).

On to `CCOC(=O)N[C@H]1CC[C@@H](Nc2nccc(N(C)C)n2)CC1` [compound 1627], for which the class under setting [3] is reported as 3 (Class 3 The value of percent of control at 10^−7 M was more than 60% or the value of IC50 was more than 200 nM.).

For the compound `CCOC(=O)c1[nH]c2cc(Cl)cc(Cl)c2c1CN[C@H]1CC[C@@H](Nc2cc(N(C)C)c3ccccc3n2)CC1` [compound 1115], under setting [6], the class is 1 (Class 1: The value of percent of control at 10^−7 M was less than 40% or the value of IC50 was less than 50 nM.).

Take `Cc1cccc([N+](=O)[O-])c1NC(=O)N[C@H]1CC[C@@H](Nc2nc3c(c(N(C)C)n2)CCCC3)CC1` [compound 1802]: the class under setting [1] is 3 (Class 3 The value of percent of control at 10^−7 M was more than 60% or the value of IC50 was more than 200 nM.).

On to `COc1ccccc1CCNC[C@H]1CC[C@@H](Nc2nccc(N(C)C)n2)CC1` [compound 1531], for which the class under setting [3] is listed as 3 (Class 3 The value of percent of control at 10^−7 M was more than 60% or the value of IC50 was more than 200 nM.).

On to `CN(C)c1cc(N[C@H]2CC[C@@H](NC(=O)c3c4ccccc4cc4ccccc34)CC2)nc2ccccc12` [compound 753], for which, under setting [1], the class was 3 (Class 3 The value of percent of control at 10^−7 M was more than 60% or the value of IC50 was more than 200 nM.).

`COc1ccc(C(=O)N[C@H]2CC[C@@H](CNc3ncc(C)c(N(C)C)n3)CC2)cc1` [compound 2715]: the class under setting [7] is listed as 3 (Class 3 The value of percent of control at 10^−7 M was more than 60% or the value of IC50 was more than 200 nM.).

With `CN(C)c1ccnc(N[C@H]2CC[C@@H](CNC(=O)c3cc(C(C)(C)C)nn3C)CC2)n1` [compound 431], under setting [2], the class is 3 (Class 3 The value of percent of control at 10^−7 M was more than 60% or the value of IC50 was more than 200 nM.).

For the compound `Cc1ccc(C(=O)NC[C@H]2CC[C@@H](Nc3cc(N(C)C)c4ccccc4n3)CC2)c(F)c1F` [compound 187], the class under setting [4] is given as 3 (Class 3 The value of percent of control at 10^−7 M was more than 60% or the value of IC50 was more than 200 nM.).

As to `CCSc1ncccc1C(=O)N[C@H]1CC[C@@H](Nc2nc3c(c(N(C)C)n2)CCCC3)CC1` [compound 472], the class under setting [2] was 3 (Class 3 The value of percent of control at 10^−7 M was more than 60% or the value of IC50 was more than 200 nM.).

Regarding `Cc1ccc(CNC(=O)[C@H]2CC[C@@H](Nc3nc(C)cc(N(C)C)n3)CC2)cc1` [Example 2574, cis-4-{[4-(dimethylamino)-6-methylpyrimidin-2-yl]amino}-N-(4-methylbenzyl)cyclohexanecarboxamide], the class is on record as 1.

As to `Cc1cc(N(C)C)nc(N[C@H]2CC[C@@H](C(=O)NCc3ccc(F)cc3)CC2)n1` [compound 2799, cis-4-{[4-(dimethylamino)-6-methylpyrimidin-2-yl]amino}-N-(4-fluorobenzyl)cyclohexanecarboxamide], the class under setting [7] is 2 (Class 2: The value of percent of control at 10^−7 M was from 40% to 60% or the value of IC′50 was from 50 nM to 200 nM.).
